Laboratory results as given in patent US6031093A, “Solid salts of clavulanic acid” (SmithKline Beecham p.l.c., priority 1995, dated 2000).
“Also recorded” adds a separate entry of the source. Counter-ions that a name gives are not always drawn. Like-named read-outs stand apart in the source and are kept apart here. Each block holds one compound with its values, some of them ahead of it.

Columns and labels:
[1] = test system: Klebsiella aerogenes E 70; assay: Antibacterial synergism, microtitre method (MIC); type: cell-based
Klebsiella aerogenes 62 = assay: Antibacterial synergism, microtitre method (MIC); type: cell-based
Klebsiella aerogenes A = assay: Antibacterial synergism, microtitre method (MIC); type: cell-based
Staphylococcus = assay: Antibacterial synergism, microtitre method (MIC); type: cell-based
Klebsiella acrogenes A = assay: Growth inhibition and synergism; type: cell-based, Klebsiella aerogenes; details: 5 μg/ml. of clavulanic acid also present
[2] = test system: Staphylococcus aureus (Russell); assay: Synergism of clavulanic acid methyl ester (M.I.C.); type: cell-based; details: in the presence of 1.0 μg/ml. clavulanic acid methyl ester
[3] = Hydrolysis of ester to clavulanic acid in pH 7 buffer; type: physicochemical; details: buffered to pH 7 (0.05M phosphate, 37° C., 1 mg/ml, 2 hours in Example 29)
Experimental: The reaction was followed by paper chromatography (bioautographic system). Using the butanol/ethanol/water system to follow the reaction over a period of 2 hours the zone of the methyl ester at Rf 0.79 decreased in size as the zone of clavulanic acid at Rf 0.12 increased.

[4] = test system: Staphylococcus aureus (Russell); assay: Antibacterial synergism, microtitre method (MIC); type: cell-based; details: Table 6
Enterobacter cleacea = assay: Antibacterial spectrum, microtitre method (MIC); type: cell-based; details: read-out: Minimum Inhibitory Concentration
Enterohacter cloacae = assay: Antibacterial synergism, microtitre method (MIC); type: cell-based; details: read-out: Minimum Inhibitory Concentration, agent alone
Stability in human blood = type: in vitro ADME
[5] = target: T1, β-lactamase produced by Escherichia coli JT4 (Escherichia coli, UniProt P62593); assay: β-lactamase inhibition assay (Description 1); type: biochemical
T1 construct: the cell debris was removed by centrifugation and aliquots of the supernatant stored deep frozen; endogenous in cells; host or cells: Escherichia coli JT4 (R factor), ultrasonic extract
T1 sequence (P62593 24-286 limits assumed): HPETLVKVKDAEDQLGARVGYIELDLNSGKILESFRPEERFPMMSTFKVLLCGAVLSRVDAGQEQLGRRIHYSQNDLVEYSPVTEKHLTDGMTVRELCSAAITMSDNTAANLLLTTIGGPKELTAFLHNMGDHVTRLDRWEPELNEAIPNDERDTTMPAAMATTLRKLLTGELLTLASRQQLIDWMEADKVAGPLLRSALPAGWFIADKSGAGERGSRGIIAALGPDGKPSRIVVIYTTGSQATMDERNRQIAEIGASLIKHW

[6] = +5 μg/ml benzyl ester of clavulanic acid
[7] = +5 μg/ml methyl ester of clavulanic acid

- MIC of Ampicillin + 5 μg/ml of Benzyl Ester of clavulanic acid [1, 6]: 3.9 µg/mL
- MIC of Ampicillin + 5 μg/ml of Methyl Ester of clavulanic acid [1, 7]: 3.9 µg/mL
- MIC of Ampicillin + 5 μg/ml of Benzyl Ester of clavulanic acid (Klebsiella aerogenes 62; [6]): 3.9 µg/mL
- MIC of Ampicillin + 5 μg/ml of Methyl Ester of clavulanic acid (Klebsiella aerogenes 62; [7]): 3.9 µg/mL
- MIC of Ampicillin + 5 μg/ml of Benzyl Ester of clavulanic acid (Klebsiella aerogenes A; [6]): 1.9 µg/mL
- MIC of Ampicillin + 5 μg/ml of Methyl Ester of clavulanic acid (Klebsiella aerogenes A; [7]): 1.9 µg/mL
- MIC (Staphylococcus; alone, inoculum 0.5×10^-2, read-out: Minimum Inhibitory Concentration, agent alone): 250 µg/mL
SMILES: CC1(C)S[C@@H]2[C@H](NC(=O)[C@H](N)c3ccccc3)C(=O)N2[C@H]1C(=O)O [ampicillin]

SMILES: CC1(C)S[C@@H]2[C@H](NC(=O)Cc3ccccc3)C(=O)N2[C@H]1C(=O)O [benzylpenicillin]
- concentration of penicillin inhibiting growth (Klebsiella acrogenes A): less than 12.5 μg/ml

SMILES: CC1(C)S[C@@H]2[C@H](NC(=O)C(C(=O)O)c3ccccc3)C(=O)N2[C@H]1C(=O)O (some centres unmarked) [carbenicillin]
- concentration of penicillin inhibiting growth (Klebsiella acrogenes A): less than 12.5 μg/ml

SMILES: O=C(Cc1cccs1)N[C@@H]1C(=O)N2C(C(=O)[O-])=C(C[n+]3ccccc3)CS[C@H]12 [cephaloridine]
- M.I.C. of antibiotic in presence of synergist [2]: < 0.03 µg/mL

SMILES: COC(=O)[C@H]1/C(=C/CO)O[C@@H]2CC(=O)N21 [clavulanic acid methyl ester]
- hydrolysis of ester to clavulanic acid [3]: slowly hydrolyse to clavulanic acid; also recorded: Slow conversion of the ester to clavulanic acid

SMILES: O=C(O)[C@H]1/C(=C/CO)O[C@@H]2CC(=O)N21 [clavulanic acid sodium salt, 3-(β-hydroxyethylidine)-7-oxo-4-oxa-1-azabicyclo [3,2,0]heptane-2-carboxylic acid sodium salt]
- Minimum Inhibitory Concentration, agent alone [4]: 15 µg/mL
- MIC (Enterobacter cleacea): 62 µg/mL
- MIC (Enterohacter cloacae): 62 µg/mL
- MIC (Staphylococcus; read-out: Minimum Inhibitory Concentration, agent alone): 62 µg/mL

SMILES: O=C(O)[C@H]1/C(=C/CO)O[C@@H]2CC(=O)N21 [clavulanic acid, Z-(2R,5R)-3-(β-hydroxyethylidene)-7-oxo-4-oxa-1-azabicyclo[3,2,0]heptane-2-carboxylic acid]
- stability in human blood (Stability in human blood): high stability
- mode of β-lactamase inhibition [5]: progressively and irreversibly inhibits
